# From US9546377B2, “Methods for the identification of genes involved in abiotic stress tolerance in plants” (priority 2011, dated 2017)
# Experiments:
# [1] = system: Arabidopsis; test: Kill curves for individual osmotic stress agents; type: in vivo; conditions: kill curve experiments, each stress agent individually in the media
# Description: The standardization of growth conditions and generation of kill curves for various osmotic stress agents individually was done before the development of quad stress assay conditions. […] As there were four stress agents being used together, a quarter of each together in a solution would denote 100% stress or an osmotic pressure of 1.23 MPa. Therefore the following concentrations of each component were used in “100% quad media”.
# Assay Conditions: Seeds were surface sterilized and stratified for 48 hrs. About 100 seeds were inoculated in one plate and cultured in a growth chamber programmed for 16 h of light at 22° C. temperature and 50% relative humidity. Germination was scored as the emergence of radicle. Assay Plan: A 6-day assay and an extended 10-day assay were done to test the seeds from the 48 transgenic Arabidopsis lines for osmotic stress tolerance. • Day 0—Surface sterilized seeds of different drought leads and stratify. • Day 2—Inoculated onto quad media. • Day 4—Counted for germination (48 hrs). • Day 5—Counted for germination (72 hrs)/Take pictures or Scan plates from 48 hrs to 96 hrs. • Day 6—Counted for germination (96 hrs). • For the extended 10-day assay, germination was scored from 48 hrs to 96 hrs. On day 7, 8, 9 and 10, the emerged seedlings were checked for greenness and four leaf stage. Preparation of Media • Germination medium (GM or 0% quad media) for 1 liter: […]
# [2] = system: Arabidopsis; test: Paraquat tolerance assay, dose effect of paraquat on growth; type: in vivo
# Method: In light-exposed plants, paraquat accepts electrons from photosystem I and transfers them to molecular oxygen. In this manner, destructive reactive oxygen species are produced. A range of paraquat concentrations were tested in Arabidopsis. […] Compared to wild-type plants, mutant plants have larger size and less-bleached leaves under these conditions. A quantitative assay based on leaf area and color (similar to low N plate analysis) can be easily integrated into this screen.
# The dose effect of paraquat on Arabidopsis growth was determined. […] Therefore this concentration was used for paraquat resistance assay. […] Tsu can serve as a positive control for this assay.
# Seeds were surface sterilized and stratified for 96 hrs. 18 seeds for each tested line and Col-0 were inoculated in one plate, then cultured in a growth chamber programmed for 16 h of light at 22° C. temperature, 150 μE light intensity and 50% relative humidity. Growth phenotype was scored based on leaf size and color at 7-day-after inoculation.
# Seeds were inoculated on a square paraquat plate. 18 seeds of test lines and 18 seeds of Col-0 were evenly put on the plate side by side. Plates were then cultured in the chambers set at 16 h of light at 22° C. temperature, 150 μE light intensity and 50% relative humidity.
SMILES,lethal concentration [1],effect on Col-0 plants ([2]; 0.03 μM paraquat),concentration that greatly inhibited Arabidopsis growth ([2]; 7-day growth on plates),concentration at which the effect on growth can be detected ([2]; in vivo),concentration giving dose-dependent growth inhibition and leaf bleach ([2]; range of paraquat concentrations tested in Arabidopsis)
OC[C@@H](O)[C@@H](O)[C@H](O)[C@@H](O)CO [sorbitol],500 mM,,,,
C[n+]1ccc(-c2cc[n+](C)cc2)cc1 [paraquat],,plants died one-week-after germination,0.03 µM,0.01 µM,0.01 to 0.1 µM
"[Cl-].[Na+] [NaCl, sodium chloride]",150 mM,,,,
OC[C@@H](O)[C@@H](O)[C@H](O)[C@H](O)CO [mannitol],500 mM,,,,
